Source: the NIST ThermoML archive (doi:10.1016/j.fluid.2007.09.028)
Numbers after ± are expanded uncertainties.

Experiment: xn = mol fraction of the nth substance listed
Settings: 101 kPa, Liquid

Clc1ccccc1 [chlorobenzene] + CCCO
mass density [kg/m3]
Settings	303.15 K	308.15 K	313.15 K
x2 = 0	1095.64 ± 0.28	1090.23 ± 0.27	1084.82 ± 0.26
x2 = 0.0254	1089.69 ± 0.27	1084.26 ± 0.26	1078.83 ± 0.25
x2 = 0.0513	1083.75 ± 0.26	1078.3 ± 0.25	1072.86 ± 0.25
x2 = 0.0726	1078.91 ± 0.26	1073.46 ± 0.25	1068.03 ± 0.24
x2 = 0.0738	1078.63 ± 0.26	1073.18 ± 0.25	1067.73 ± 0.24
x2 = 0.1016	1072.22 ± 0.25	1066.77 ± 0.24	1061.3 ± 0.23
x2 = 0.1058	1071.26 ± 0.24	1065.81 ± 0.24	1060.35 ± 0.23
x2 = 0.1365	1064.08 ± 0.23	1058.63 ± 0.23	1053.17 ± 0.22
x2 = 0.2019	1048.56 ± 0.21	1043.17 ± 0.2	1037.75 ± 0.2
x2 = 0.2472	1037.53 ± 0.2	1032.14 ± 0.19	1026.73 ± 0.18
x2 = 0.2984	1024.62 ± 0.18	1019.26 ± 0.17	1013.88 ± 0.16
x2 = 0.3443	1012.85 ± 0.16	1007.53 ± 0.16	1002.2 ± 0.15
x2 = 0.4027	997.378 ± 0.15	992.12 ± 0.16	986.836 ± 0.17
x2 = 0.4952	971.618 ± 0.19	966.472 ± 0.2	961.296 ± 0.21
x2 = 0.5492	955.797 ± 0.22	950.728 ± 0.23	945.63 ± 0.23
x2 = 0.5975	941.211 ± 0.24	936.213 ± 0.25	931.183 ± 0.26
x2 = 0.6447	926.463 ± 0.27	921.545 ± 0.28	916.599 ± 0.28
x2 = 0.699	908.798 ± 0.3	903.973 ± 0.3	899.127 ± 0.31
x2 = 0.7494	891.773 ± 0.33	887.057 ± 0.33	882.312 ± 0.34
x2 = 0.8008	873.664 ± 0.35	869.063 ± 0.36	864.438 ± 0.37
x2 = 0.8473	856.643 ± 0.38	852.152 ± 0.39	847.622 ± 0.4
x2 = 0.8955	838.296 ± 0.41	833.934 ± 0.42	829.53 ± 0.43
x2 = 0.9192	829.014 ± 0.43	824.709 ± 0.43	820.375 ± 0.44
x2 = 0.9497	816.677 ± 0.45	812.457 ± 0.46	808.213 ± 0.46
